Measurements published in patent publication US20110182850A1, “ORGANIC COMPOUNDS AND THEIR USES” (priority 2009, published 2011).

Each compound was assayed against T1, HCV NS3-4A serine protease (full-length NS3-4A protein, genotype 1a, strain HCV-1) (Hepatitis C virus genotype 1a, UniProt P26664) (assay: HCV NS3-4A protease assay). Details: Protease IC50.
T1 construct: using the full-length NS3-4A protein (genotype 1a, strain HCV-1)
Type: biochemical
Procedure: The inhibitory activity of certain compounds of Table A against HCV NS3-4A serine protease is determined in a homogenous assay using the full-length NS3-4A protein (genotype 1a, strain HCV-1) and a commercially available internally-quenched fluorogenic peptide substrate as described by Taliani, M., et al. 1996 Anal. Biochem. 240:60-67, which is incorporated by reference in its entirety.

T1 sequence (P26664 1658-1711): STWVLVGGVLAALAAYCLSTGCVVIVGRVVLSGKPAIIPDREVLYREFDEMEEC
T1 sequence (P26664 1027-1657): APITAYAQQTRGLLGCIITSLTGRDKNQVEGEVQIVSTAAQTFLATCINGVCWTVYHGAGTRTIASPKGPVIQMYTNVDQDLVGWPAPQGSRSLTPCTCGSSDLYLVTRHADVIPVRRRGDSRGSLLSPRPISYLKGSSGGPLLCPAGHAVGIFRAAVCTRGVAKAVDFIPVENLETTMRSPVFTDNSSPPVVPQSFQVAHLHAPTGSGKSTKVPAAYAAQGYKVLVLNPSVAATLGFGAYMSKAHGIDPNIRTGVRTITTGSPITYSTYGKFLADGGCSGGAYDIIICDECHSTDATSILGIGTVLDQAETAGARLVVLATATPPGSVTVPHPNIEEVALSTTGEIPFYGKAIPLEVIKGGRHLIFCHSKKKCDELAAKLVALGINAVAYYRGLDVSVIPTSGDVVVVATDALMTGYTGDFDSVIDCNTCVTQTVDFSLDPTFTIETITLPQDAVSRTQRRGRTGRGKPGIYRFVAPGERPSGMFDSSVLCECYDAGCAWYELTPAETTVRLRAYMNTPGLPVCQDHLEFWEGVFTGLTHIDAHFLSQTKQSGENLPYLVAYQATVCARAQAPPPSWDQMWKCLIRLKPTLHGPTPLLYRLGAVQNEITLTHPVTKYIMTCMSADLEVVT

Row | Structure (SMILES) | IC50 [nM]
1 | C=C[C@@H]1C[C@]1(NC(=O)[C@@H]1C[C@@]2(CN1C(=O)[C@@H](NC(=O)[C@@H](NC(=O)[C@@H]1CCCCN1CCF)C(C)(C)C)C(C)(C)C)C(C)(C)C21CCC1)C(=O)NS(=O)(=O)c1cccc2cc[nH]c12 [Compound 14, (5R,8S)-7-[(2S)-2-{[(2S)-2-({[(2S)-1-(2-fluoroethyl)piperidin-2-yl]carbonyl}amino)-3,3-dimethylbutanoyl]amino}-3,3-dimethylbutanoyl]-N-{(1R,2S)-1-[(1H-indol-7-ylsulfonyl)carbamoyl]-2-vinylcyclopropyl}-10,10-dimethyl-7-azadispiro[3.0.4.1]decane-8-carboxamide] | 6.5
2 | CC(C)N1CCCC[C@H]1C(=O)N[C@H](C(=O)N[C@H](C(=O)N1C[C@]2(CC1C(=O)NC1(C(=O)NS(=O)(=O)C3CC3)CC1(C)C)C(C)(C)C21CCC1)C(C)(C)C)C(C)(C)C (stereo partly drawn) [Compound 15, (5R)-N-{1-[(cyclopropylsulfonyl)carba-moyl]-2,2-dimethylcyclopropyl}-7-[(2S)-2-{[(2S)-2-({[(2S)-1-isopropylpiperidin-2-yl]carbonyl}amino)-3,3-dimethylbutanoyl]amino}-3,3-dimethylbutanoyl]-10,10-dimethyl-7-azadispiro[3.0.4.1]decane-8-carboxamide] | 3700
3 | C=C[C@@H]1C[C@]1(NC(=O)[C@@H]1C[C@@]2(CN1C(=O)[C@@H](NC(=O)[C@@H](NC(=O)[C@@H]1CCCCN1C(C)C)C(C)(C)C)C(C)(C)C)C(C)(C)C21CCC1)C(=O)NS(=O)(=O)c1ccccc1 [Compound 17, (5R,8S)-7-[(2S)-2-{[(2S)-2-({[(2S)-1-isopropylpiperidin-2-yl]carbonyl}amino)-3,3-dimethylbutanoyl]amino}-3,3-dimethylbutanoyl]-10,10-dimethyl-N-{(1R,2S)-1-[(phenylsulfonyl)carbamoyl]-2-vinylcyclopropyl}-7-azadispiro[3.0.4.1]decane-8-carboxamide] | 4.5
4 | C=C[C@@H]1C[C@]1(NC(=O)[C@@H]1C[C@@]2(CN1C(=O)[C@@H](NC(=O)[C@@H](NC(=O)[C@@H]1CCCCN1C(C)C)C(C)(C)C)C(C)(C)C)C(C)(C)C21CCC1)C(=O)NS(=O)(=O)Cc1ccccc1 [Compound 22, (5R,8S)-N-{(1R,2S)-1-[(benzylsulfonyl)carbamoyl]-2-vinylcyclopropyl}-7-[(2S)-2-{[(2S)-2-({[(2S)-1-isopropylpiperidin-2-yl]carbonyl}amino)-3,3-dimethylbutanoyl]amino}-3,3-dimethylbutanoyl]-10,10-dimethyl-7-azadispiro[3.0.4.1]decane-8-carboxamide] | 14
5 | CC(C)N1CCCC[C@H]1C(=O)N[C@H](C(=O)N[C@H](C(=O)N1C[C@]2(C[C@H]1C(=O)NC1(C(=O)NS(=O)(=O)C3CC3)CC=CC1)C(C)(C)C21CCC1)C(C)(C)C)C(C)(C)C [Compound 23, (5R,8S)-N-{1-[(cyclopropylsulfonyl)carba-moyl]cyclopent-3-en-1-yl}-7-[(2S)-2-{[(2S)-2-({[(2S)-1-isopropylpiperidin-2-yl]carbonyl}amino)-3,3-dimethylbutanoyl]amino}-3,3-dimethylbutanoyl]-10,10-dimethyl-7-azadispiro[3.0.4.1]decane-8-carboxamide] | 1250
6 | CC(C)(C)[C@H](NC(=O)[C@@H]1CCCCN1CCF)C(=O)N[C@H](C(=O)N1C[C@]2(C[C@H]1C(=O)NC1(C(=O)NS(=O)(=O)C3CC3)CC=CC1)C(C)(C)C21CCC1)C(C)(C)C [Compound 24, (5R,8S)-N-{1-[(cyclopropylsulfonyl)carba-moyl]cyclopent-3-en-1-yl}-7-[(2S)-2-{[(2S)-2-({[(2S)-1-(2-fluoroethyl)piperidin-2-yl]carbonyl}amino)-3,3-dimethylbutanoyl]amino}-3,3-dimethylbutanoyl]-10,10-dimethyl-7-azadispiro[3.0.4.1]decane-8-carboxamide] | 5250
7 | CC(C)N1CCCCC1C(=O)N[C@H](C(=O)N[C@H](C(=O)N1C[C@]2(C[C@H]1C(=O)N[C@]1(C(=O)NS(=O)(=O)C3CC3)CC=CCC1)C(C)(C)C21CCC1)C(C)(C)C)C1CCCCC1 (stereo partly drawn) [Compound 25, (5R,8S)-7-[(2S)-2-{[(2S)-2-cyclohexyl-2-{[(1-isopropylpiperidin-2-yl)carbonyl]amino}acetyl]amino}-3,3-dimethylbutanoyl]-N-{(1S)-1-[(cyclopropylsulfonyl)carba-moyl]cyclohex-3-en-1-yl}-10,10-dimethyl-7-azadispiro[3.0.4.1]decane-8-carboxamide] | 550
8 | CC(C)N1CCCCC1C(=O)N[C@H](C(=O)N[C@H](C(=O)N1C[C@]2(C[C@H]1C(=O)N[C@]1(C(=O)NS(=O)(=O)C3CC3)CC=CCC1)C(C)(C)C21CCC1)C(C)(C)C)C(C)(C)C (stereo partly drawn) [Compound 26, (5R,8S)-N-{(1S)-1-[(cyclopropylsulfonyl)carba-moyl]cyclohex-3-en-1-yl}-7-[(2S)-2-{[(2S)-2-{[(1-isopropylpiperidin-2-yl)carbonyl]amino}-3,3-dimethylbutanoyl]amino}-3,3-dimethylbutanoyl]-10,10-dimethyl-7-azadispiro[3.0.4.1]decane-8-carboxamide] | 2950
9 | CC(C)(C)[C@H](NC(=O)[C@@H](NC(=O)C1CCCCN1CCF)C1CCCCC1)C(=O)N1C[C@]2(C[C@H]1C(=O)N[C@]1(C(=O)NS(=O)(=O)C3CC3)CC=CCC1)C(C)(C)C21CCC1 (stereo partly drawn) [Compound 27, (5R,8S)-7-[(2S)-2-{[(2S)-2-cyclohexyl-2-({[1-(2-fluoroethyl)piperidin-2-yl]carbonyl}amino)acetyl]amino}-3,3-dimethylbutanoyl]-N-{(1S)-1-[(cyclopropylsulfonyl)carba-moyl]cyclohex-3-en-1-yl}-10,10-dimethyl-7-azadispiro[3.0.4.1]decane-8-carboxamide] | 2850
10 | CC(C)(C)[C@H](NC(=O)C1CCCCN1CCF)C(=O)N[C@H](C(=O)N1C[C@]2(C[C@H]1C(=O)N[C@]1(C(=O)NS(=O)(=O)C3CC3)CC=CCC1)C(C)(C)C21CCC1)C(C)(C)C (stereo partly drawn) [Compound 28, (5R,8S)-N-{(1S)-1-[(cyclopropylsulfonyl)carba-moyl]cyclohex-3-en-1-yl}-7-[(2S)-2-{[(2S)-2-({[1-(2-fluoroethyl)piperidin-2-yl]carbonyl}amino)-3,3-dimethylbutanoyl]amino}-3,3-dimethylbutanoyl]-10,10-dimethyl-7-azadispiro[3.0.4.1]decane-8-carboxamide] | 3150
11 | C=C[C@@H]1C[C@]1(NC(=O)[C@@H]1C[C@@]2(CN1C(=O)[C@@H](NC(=O)[C@@H](NC(=O)[C@@H]1CCCCN1CCF)C1CCCCC1)C(C)(C)C)C(C)(C)C21CCC1)C(=O)NS(=O)(=O)C1CC1 [Compound 29, (5R,8S)-7-[(2S)-2-{[(2S)-2-cyclohexyl-2-({[(2S)-1-(2-fluoroethyl)piperidin-2-yl]carbonyl}amino)acetyl]amino}-3,3-dimethylbutanoyl]-N-{(1R,2S)-1-[(cyclopropylsulfonyl)carba-moyl]-2-vinylcyclopropyl}-10,10-dimethyl-7-azadispiro[3.0.4.1]decane-8-carboxamide] | 1

Same assay, conditions: read-out: Protease IC50

Row | IC50 [nM] | Structure (SMILES)
12 | 10 | C=C[C@@H]1C[C@]1(NC(=O)[C@@H]1C[C@@]2(CN1C(=O)[C@@H](NC(=O)N[C@H](CN1CCN(C)CC1)C(C)(C)C)C(C)(C)C)C(C)(C)C21CCC1)C(=O)NS(=O)(=O)C1CC1 [Compound 16, (5R,8S)-N-{(1R,2S)-1-[(cyclopropylsulfonyl)carba-moyl]-2-vinylcyclopropyl}-7-{(2S)-2-[({(1S)-2,2-dimethyl-1-[(4-methylpiperazin-1-yl)methyl]propyl}carbamoyl)amino]-3,3-dimethylbutanoyl}-10,10-dimethyl-7-azadispiro[3.0.4.1]decane-8-carboxamide]
13 | 3 | C=C[C@@H]1C[C@]1(NC(=O)[C@@H]1C[C@@]2(CN1C(=O)[C@@H](NC(=O)N[C@H](CN(C)S(=O)(=O)c1ccccn1)C(C)(C)C)C(C)(C)C)C(C)(C)C21CCC1)C(=O)NS(=O)(=O)C1CC1 [Compound 18, (5R,8S)-N-{(1R,2S)-1-[(cyclopropylsulfonyl)carba-moyl]-2-vinylcyclopropyl}-7-[(2S)-2-({[(1S)-2,2-dimethyl-1-{[methyl(pyridin-2-ylsulfonyl)amino]methyl}prop-yl]carbamoyl}amino)-3,3-dimethylbutanoyl]-10,10-dimethyl-7-azadispiro[3.0.4.1]decane-8-carboxamide]
14 | 350 | C=C[C@@H]1C[C@]1(NC(=O)[C@@H]1C[C@@]2(CN1C(=O)[C@@H](NC(=O)C1CCCN(C(C)=O)C1)C(C)(C)C)C(C)(C)C21CCC1)C(=O)NS(=O)(=O)C1CC1 (stereo partly drawn) [Compound 19, (5R,8S)-7-[(2S)-2-{[(1-acetylpiperidin-3-yl)carbonyl]amino}-3,3-dimethylbutanoyl]-N-{(1R,2S)-1-[(cyclopropylsulfonyl)carba-moyl]-2-vinylcyclopropyl}-10,10-dimethyl-7-azadispiro[3.0.4.1]decane-8-carboxamide]
15 | 2 | C=C[C@@H]1C[C@]1(NC(=O)[C@@H]1C[C@@]2(CN1C(=O)[C@@H](NC(=O)N[C@H](CN(C)S(=O)(=O)N(C)C)C(C)(C)C)C(C)(C)C)C(C)(C)C21CCC1)C(=O)NS(=O)(=O)C1CC1 [Compound 20, (5R,8S)-N-{(1R,2S)-1-[(cyclopropylsulfonyl)carba-moyl]-2-vinylcyclopropyl}-7-[(2S)-2-({[(1S)-1-({[(dimethylamino)sulfonyl] (methyl)amino}methyl)-2,2-dimethylpropyl]carbamoyl}amino)-3,3-dimethylbutanoyl]-10,10-dimethyl-7-azadispiro[3.0.4.1]decane-8-carboxamide]
